Data taken from the NIST ThermoML archive (doi:10.1016/j.fluid.2010.07.026).
Several values for one entry are separate records, joined by “and”; a condition that tells them apart may be missing. Identical values can stand only once.

Columns and labels:
[1] = Capillary rise
[2] = wn = mass fraction of the nth substance listed; conditions: Capillary rise

CCC [propane]
[1]
Conditions | surface tension liquid-gas [mN/m]
278.18 K | 9.5
283.18 K | 8.9
288.19 K | 8.3
293.18 K | 7.7
298.1 K | 7.1
303.18 K | 6.4

COC [dimethyl ether]
[1]
Conditions | surface tension liquid-gas [mN/m]
278.16 K | 14.7
283.21 K | 13.9
288.17 K | 13.1
293.15 K | 12.6
298.1 K | 11.8
303.13 K | 11

COC [dimethyl ether] + CCC
[2]
Conditions | surface tension liquid-gas
243.4 K, w1 = 0.4975 | 16 mN/m
243.46 K, w1 = 0.6949 | 17.3 mN/m and 17.2 mN/m
243.56 K, w1 = 0.3007 | 15.2 mN/m
248.19 K, w1 = 0.4975 | 15.4 mN/m
248.27 K, w1 = 0.3007 | 14.5 mN/m
248.43 K, w1 = 0.6949 | 16.7 mN/m and 16.6 mN/m
253.08 K, w1 = 0.3007 | 13.9 mN/m
253.09 K, w1 = 0.4975 | 14.7 mN/m
253.23 K, w1 = 0.6949 | 15.9 mN/m and 15.8 mN/m
258.34 K, w1 = 0.6949 | 15.2 mN/m
258.38 K, w1 = 0.4975 | 13.9 mN/m and 14 mN/m
258.42 K, w1 = 0.3007 | 13.1 mN/m
263.11 K, w1 = 0.4975 | 13.4 mN/m
263.16 K, w1 = 0.6949 | 14.4 mN/m
263.33 K, w1 = 0.3007 | 12.4 mN/m
268.05 K, w1 = 0.3007 | 11.8 mN/m
268.16 K, w1 = 0.4975 | 12.7 mN/m
268.16 K, w1 = 0.6949 | 13.7 mN/m
273.14 K, w1 = 0.3007 | 11.1 mN/m
273.15 K, w1 = 0.6949 | 12.9 mN/m
273.16 K, w1 = 0.4975 | 11.9 mN/m and 12 mN/m
278.13 K, w1 = 0.3007 | 10.5 mN/m
278.15 K, w1 = 0.4975 | 11.3 mN/m
278.16 K, w1 = 0.6949 | 12.3 mN/m
283.13 K, w1 = 0.3007 | 9.8 mN/m
283.16 K, w1 = 0.4975 | 10.6 mN/m
283.16 K, w1 = 0.6949 | 11.6 mN/m
288.12 K, w1 = 0.3007 | 9.1 mN/m
288.15 K, w1 = 0.4975 | 10 mN/m
288.15 K, w1 = 0.6949 | 11 mN/m and 11.1 mN/m
293.11 K, w1 = 0.3007 | 8.4 mN/m and 8.5 mN/m
293.13 K, w1 = 0.4975 | 9.3 mN/m
293.17 K, w1 = 0.6949 | 10.4 mN/m
298.08 K, w1 = 0.3007 | 7.8 mN/m and 7.9 mN/m
298.09 K, w1 = 0.4975 | 8.7 mN/m
298.1 K, w1 = 0.6949 | 9.6 mN/m
303.12 K, w1 = 0.4975 | 8 mN/m
303.15 K, w1 = 0.3007 | 7 mN/m and 7.1 mN/m
303.17 K, w1 = 0.6949 | 9.1 mN/m
308.08 K, w1 = 0.4975 | 7.4 mN/m
308.11 K, w1 = 0.3007 | 6.5 mN/m
308.11 K, w1 = 0.6949 | 8.5 mN/m and 8.4 mN/m
313.17 K, w1 = 0.3007 | 5.9 mN/m
313.17 K, w1 = 0.4975 | 6.6 mN/m and 6.7 mN/m
313.18 K, w1 = 0.6949 | 7.7 mN/m
318.13 K, w1 = 0.3007 | 5.3 mN/m
318.13 K, w1 = 0.4975 | 6.1 mN/m
318.16 K, w1 = 0.6949 | 7.1 mN/m
323.17 K, w1 = 0.3007 | 4.8 mN/m
323.17 K, w1 = 0.4975 | 5.5 mN/m
323.17 K, w1 = 0.6949 | 6.5 mN/m and 6.4 mN/m
328.12 K, w1 = 0.3007 | 4.2 mN/m
328.13 K, w1 = 0.4975 | 4.9 mN/m and 5 mN/m
328.14 K, w1 = 0.6949 | 5.9 mN/m and 5.8 mN/m
333.12 K, w1 = 0.3007 | 3.7 mN/m
333.13 K, w1 = 0.6949 | 5.3 mN/m and 5.2 mN/m
333.14 K, w1 = 0.4975 | 4.3 mN/m
